Patent US20090156668A1, “Ginkgolide Compounds, Compositions, And Extracts, And Uses Thereof” (priority 2004, published 2009)
Like-named read-outs stand apart in the source and are kept apart here.

Tests used:
[1] = biological target: platelet activating factor (Homo sapiens, UniProt P25105); settings: analogs obtained as racemates, cited from earlier work
[2] = test system: rat hippocampal neuron cultures; assay: neuroprotection assay: beta amyloid-induced neuronal cell death, viable cells by cell nuclei counting; settings: for number of viable cells (control = 100%): ginkgolide 1 μM + oligomeric amyloid beta, mean±SEM of 3 experiments
[3] = test system: beta-amyloid (1-42)-induced inhibition of long-term potentiation in the CA1 region of hippocampal slices; type: cell-based, mice
[4] = read-out: anti-PAF IC50; analogs obtained as racemates; cited from earlier work

Chain of platelet activating factor (P25105 whole entry): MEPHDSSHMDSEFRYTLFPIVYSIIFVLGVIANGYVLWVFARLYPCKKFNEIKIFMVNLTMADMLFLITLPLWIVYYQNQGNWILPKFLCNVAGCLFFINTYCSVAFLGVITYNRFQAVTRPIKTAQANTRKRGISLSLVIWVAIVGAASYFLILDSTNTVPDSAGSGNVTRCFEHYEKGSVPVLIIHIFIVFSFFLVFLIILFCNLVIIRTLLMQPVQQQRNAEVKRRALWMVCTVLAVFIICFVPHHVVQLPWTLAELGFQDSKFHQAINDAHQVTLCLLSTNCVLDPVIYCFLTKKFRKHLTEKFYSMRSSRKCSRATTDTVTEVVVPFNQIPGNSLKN

| Molecule | number of viable cells (control = 100%) ([2]; 24 h) [%] | rescue of LTP (L-LTP) impairment in slices treated with Aβ [3] | further results |
| --- | --- | --- | --- |
| CC1C(=O)OC2CC34C5CC(C(C)(C)C)C36C(=O)C(=O)OC6OC4(C(=O)O5)C21O (centres unmarked) [10-keto analog] |  |  | IC50 ([1]; read-out: anti-PAF IC50): 3900 nM |
| C[C@@H]1C(=O)O[C@H]2CC34C5OC(=O)C3(OC3OC(=O)[C@H](O)C34[C@H](C(C)(C)C)[C@H]5O)[C@]21O (some centres unmarked) [Ginkgolide J] | 70.7±1.4 | rescued the LTP to the same values recorded in control untreated slices | consistently able to prevent amyloid beta-induced cell death [2]: consistently able to prevent cell death; more cells than the other treatments [2]: approximately 40%; prevention of amyloid beta toxicity [2]: appeared to completely prevent amyloid beta toxicity |
| Ginkgolide B [GB] |  | does not rescue L-LTP impairment | IC50 ([1]; read-out: anti-PAF activity IC50): 600 nM |
| Ginkgolide C [GC] |  | does not rescue L-LTP impairment |  |
| C[C@@H]1C(=O)O[C@H]2CC34C5C[C@@H](C(C)(C)C)C36C(OC(=O)[C@@H]6O)OC4(C(=O)O5)[C@]21O (some centres unmarked) [Ginkgolide A] | 50.5±5.7 | rescued the LTP to the same values recorded in control untreated slices | consistently able to prevent amyloid beta-induced cell death ([2]; ginkgolide 1 μM, 24 h): not; IC50 [4]: 1900 nM |
| CC(C)(C)[C@]1(O)CC2OC(=O)CC23C(=O)OC2OC(=O)[C@H](O)C231 (some centres unmarked) [BB, bilobalide] |  | does not rescue L-LTP impairment |  |
